{
  "source": "paper PMC5626019",
  "about": "(Nature, 2017)",
  "key": {"[1]": {"tested_on": "DQB1*05:01", "settings": "competition binding to purified MHC"}, "[2]": {"tested_on": "DQB1*04:02", "settings": "competition binding to purified MHC"}, "[3]": {"tested_on": "PBMC", "experiment": "IFNγ and IL-5 dual ELISPOT after 14 days culture", "assay_type": "cell-based, human"}, "[4]": {"target": "purified HLA A*11:01 molecules (Homo sapiens, UniProt P04439, A114D/D185E/E176A/F33Y/L180Q/S129P/T187R)", "experiment": "HLA class I competition binding assay", "settings": "for binding, in words: purified HLA A*11:01 in vitro"}, "[5]": {"tested_on": "26 common HLA class II alleles", "experiment": "HLA class II competition binding, panel of common alleles", "parameters": "species or system human"}},
  "note": "No end group written: not given here.",
  "data": [
    {"substance": "DNEAYEMPSEEGYQD", "values": [
      {"measurement": "binding, in words", "setting": "[1]", "value": "strongly bound"}
    ]},
    {"substance": "EMPSEEGYQDYEPEA", "values": [
      {"measurement": "binding, in words", "setting": "[1]", "value": "low affinity"},
      {"measurement": "binding, in words", "setting": "[2]", "value": "low affinity"}
    ]},
    {"substance": "GKTKEGVLYVGSKTK", "values": [
      {"measurement": "T cell response, in words", "setting": "[3]; PBMC stimulated 14 days, peptides 5 μg/ml", "value": "apparent Class II restricted IL-5 and IFNγ response"}
    ]},
    {"substance": "GVLYVGSKTK", "values": [
      {"measurement": "binding, in words", "setting": "[4]", "value": "bound poorly"}
    ]},
    {"substance": "MPVDPDNEAYEMPSE", "values": [
      {"measurement": "binding, in words", "setting": "[5]", "value": "bound several alleles with lower affinity"}
    ]},
    {"substance": "VLYVGSKTK", "values": [
      {"measurement": "IC50", "setting": "[4]", "value": 161, "unit": "nM"}
    ]},
    {"substance": "VLYVGSKTKK", "values": [
      {"measurement": "binding, in words", "setting": "[4]", "value": "bound poorly"}
    ]},
    {"substance": "phosphorylated aaS129 aa116MPVDPDNEAYEMPSEaa130: phosphorylated aaS129 epitope", "values": [
      {"measurement": "IL-5 responses in PD compared with HC", "setting": "[3]; p=0.02, Fisher's exact test, 300 SFC threshold", "value": "markedly higher"}
    ]}
  ]
}
